Measured values taken from PubChem BioAssay (NCI).
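In this assay, cells in 96-well plates receive the compound at five concentrations for 48 hours. Endpoints are linearly interpolated between the surrounding concentrations. At the TGI there is no net growth.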

Legend:
Assay in all cases: growth of human tumour cells (NCI), 48 h
HOP-92 NSCLC = test system: HOP-92 NSCLC
NCI-H522 lung = test system: NCI-H522 lung
SW-620 colon = test system: SW-620 colon
MDA-MB-435 = test system: MDA-MB-435
SK-MEL-5 melanoma = test system: SK-MEL-5 melanoma
SF-268 CNS = test system: SF-268 CNS
NCI-H226 lung = test system: NCI-H226 lung
786-0 renal = test system: 786-0 renal
NCI/ADR-RES ovarian = test system: NCI/ADR-RES ovarian
HT29 colon = test system: HT29 colon
UO-31 renal = test system: UO-31 renal
UACC-257 melanoma = test system: UACC-257 melanoma

Row | Structure (SMILES) | TGI (HOP-92 NSCLC) | TGI (NCI-H522 lung) | TGI (SW-620 colon) | TGI (MDA-MB-435) | TGI (SK-MEL-5 melanoma) | TGI (SF-268 CNS) | TGI (NCI-H226 lung) | TGI (786-0 renal) | TGI (NCI/ADR-RES ovarian) | TGI (HT29 colon) | TGI (UO-31 renal) | TGI (UACC-257 melanoma)
1 | COc1ccc2nc(NC(=O)/C(C#N)=C/c3ccccc3)sc2c1 | > 100 µM | 65.4 µM | > 100 µM | > 100 µM | > 73.6 µM | > 100 µM | > 100 µM | > 100 µM | > 69.6 µM | > 96.1 µM | > 100 µM | > 100 µM
2 | CCCCCCN(CCCCCC)C(=S)N/N=C(\C)c1ccccn1 | 6.43 µM | 2.7 µM | 4.77 µM | 3.7 µM | 2.57 µM | 3.52 µM | 2.27 µM | 2.38 µM | 4.27 µM | 4.29 µM | 3.07 µM | 4.34 µM
3 | COC1OC(C)C(NC(=O)OCC(Cl)(Cl)Cl)C2OC(C)(C)OC12 (stereo not drawn) | > 100 µM | > 100 µM | > 100 µM | > 100 µM | > 100 µM | > 100 µM | > 100 µM | > 100 µM | > 100 µM | > 100 µM | > 100 µM | > 100 µM
4 | Cn1c2ccccc2c2ccc3c(c21)C(=O)c1ccc2c4ccccc4n(C)c2c1C3=O | > 100 µM | > 100 µM | > 100 µM | > 100 µM | > 100 µM | > 100 µM | > 100 µM | > 100 µM | > 100 µM | > 100 µM | > 100 µM | > 100 µM
5 | O=C(/C=C/c1ccc(Cl)cc1)Oc1ccc(C=C2CCC/C(=C\c3ccc(OC(=O)/C=C/c4ccc(Cl)cc4)cc3)C2=O)cc1 | > 100 µM | > 100 µM | > 100 µM | > 100 µM | > 100 µM | > 100 µM | > 100 µM | > 100 µM | > 100 µM | > 100 µM | > 100 µM | > 100 µM
6 | CN(C)CCN(c1ccccn1)c1ccccn1 | > 100 µM | > 100 µM | > 100 µM | > 100 µM | > 100 µM | > 100 µM | > 100 µM | > 100 µM | > 100 µM | > 100 µM | > 100 µM | > 100 µM
7 | OCc1ccc2c(c1)CC1(C2)Cc2cc3c(cc2C1O)CCC3 (stereo not drawn) | 34.1 µM | 10 µM | 24 µM | 2.99 µM | 12 µM | > 72.7 µM | 28.9 µM | 45.6 µM | 12.3 µM | 17.5 µM | 24.1 µM | 12.6 µM
8 | CC(=O)c1ccc(Oc2c3ccccc3nc3ccccc23)cc1 | 25.6 µM | 25.4 µM | 20.5 µM | 10.5 µM | 28.6 µM | 17.9 µM | 26.4 µM | 9.61 µM | 30.4 µM | 6.69 µM | 13.2 µM | 15.4 µM
9 | CN(C)c1ccc(/C=C(\NC(=O)c2ccccc2)C(=O)NC(CC(=O)O)C(=O)O)cc1 (stereo not drawn) | > 100 µM | 46.8 µM | > 100 µM | > 100 µM | > 100 µM | > 100 µM | > 100 µM | > 100 µM | > 100 µM | > 100 µM | > 100 µM | > 100 µM
